Results from US7923440B2, “Method of treating or preventing immune mediated disorders and pharmaceutical formulation for use therein” (Pantarhei Bioscience B.V., priority 2002, dated 2011).

How the values were obtained:
[1] = tested on: ovariectomized adult rats; assay: Vaginal cornification bioassay in ovariectomized rats; assay type: in vivo, rat; details: for Number of Rats Exhibiting Estrogenic Response/Number of Rats Treated: sc, Day 7
Description: Uterine weight increase in the rat is more commonly used as a measure of estrogenicity. […] In the early 1920s it was discovered that follicular fluid from the pig ovary contained a factor(s) that caused cornification/keratinization of the vaginal epithelium in the rat (Allen and Doisy, 1923, JAMA, 81, 819-821; Allen and Doisy, 1924, Am. J. Physiol., 69, 577-588). The so-called vaginal cornification response in rats subsequently provided a bioassay for testing estrogenicity. Vaginal epithelial cornification/keratinization in ovariectomized rats can be produced only by compounds considered to be true estrogens (Jones et al, 1973, Fert. Steril. 24, 284-291). […] Adult intact female CD rats were ovariectomized to induce estrogen deficiency. […] Castrate vaginal smears are indicative that complete ovariectomy was achieved. Treatment commenced following completion of the 7 days of smearing (day 0=first day of dosing). Animals were dosed, once daily for 7 consecutive days. Daily vaginal lavages continued to be obtained for 7 days after dosing was initiated in order to detect vaginal cornification, as an indication of an estrogenic response. A drop of vaginal washings was placed on a glass slide and examined by light microscopy to detect the presence or absence of cornified epithelial cells. Vaginal lavages were obtained prior to dosing on days 0-6 and prior to necropsy on day 7. The vaginal cornification bioassay was performed in order to determine the estrogenic profile of E4 when given subcutaneously (sc) to ovariectomized adult rats. E2 was used as a positive control. The vehicle (10% ethanol/sesame oil) served as the negative control. Steroids were dissolved in absolute ethanol and then brought to the final concentration with sesame oil (10% ethanol in sesame oil). […] The vaginal cornification bioassay was performed in order to determine the estrogenic profile of E4 when given orally (po) to ovariectomized adult rats. EE was used as a positive control. The vehicle (10% ethanol/sesame oil) served as the negative control. […]

[2] = molecular target: T1, human sex Hormone Binding Globulin (SHBG) (Homo sapiens, UniProt P04278); assay: Competitive steroid-binding assay for SHBG
T1 construct: made in house; host or cells: transgenic mouse (serum)
T1 sequence (P04278 30-402): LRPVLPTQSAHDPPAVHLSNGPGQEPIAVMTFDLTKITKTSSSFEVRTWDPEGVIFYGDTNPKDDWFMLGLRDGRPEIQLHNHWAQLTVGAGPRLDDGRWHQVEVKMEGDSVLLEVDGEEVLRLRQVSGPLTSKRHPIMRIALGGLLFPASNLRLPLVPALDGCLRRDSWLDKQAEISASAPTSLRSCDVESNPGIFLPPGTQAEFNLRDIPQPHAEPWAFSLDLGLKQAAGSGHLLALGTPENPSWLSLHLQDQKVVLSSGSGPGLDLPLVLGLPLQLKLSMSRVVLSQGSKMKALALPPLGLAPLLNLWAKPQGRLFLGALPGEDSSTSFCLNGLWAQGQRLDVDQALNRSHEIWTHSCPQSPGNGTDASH
Protocol: Human SHBG was treated for 30 min at room temperature with a dextran-coated charcoal (DCC) suspension in phosphate buffered saline (PBS) to remove any steroid ligand. After centrifugation (2,000×g for 10 min) to sediment the DCC, the supernatant containing the human SHBG was diluted in PBS to a concentration of 1 nM based on its steroid binding capacity.
The average amounts of [^3H]labeled ligands bound to SHBG at each concentration of competitor (B) were expressed as a percentage of the average amounts of [^3H]labeled ligands bound to SHBG in the absence of competitor (B0), and were plotted against the concentration of competitor in each assay tube.

[3] = tested on: SJL/J mice with experimental autoimmune encephalomyelitis (EAE); assay: PLP139-151 induced EAE in SJL/J mice, oral treatment; assay type: in vivo; details: for EAE incidence / mean cumulative EAE score versus vehicle / mean cumulative EAE score: day 0-42; for mean cumulative EAE score: vehicle 17.4±5.0; for clinical EAE score in second phase (relapse): day 26 until day 42; for mean maximal clinical (disability) score: vehicle 1.8±0.3; for mean day of onset of EAE: vehicle day 12
nonpregnant ewes = details: intravenously administered, Levine et al. 1984; cited from earlier work
[4] = tested on: human breast cancer cells (MCF-7); details: in vitro cell proliferation, Jozan et al. 1981; cited from earlier work
[5] = molecular target: T2, rat uterine cytosol estrogen receptor (Rattus norvegicus, UniProt P06211); details: Martucci et al. 1976; cited from earlier work
T2 construct: rat uterine cytosol estrogen receptor; host or cells: rat uterus, cytosol
T2 sequence (P06211 1-600): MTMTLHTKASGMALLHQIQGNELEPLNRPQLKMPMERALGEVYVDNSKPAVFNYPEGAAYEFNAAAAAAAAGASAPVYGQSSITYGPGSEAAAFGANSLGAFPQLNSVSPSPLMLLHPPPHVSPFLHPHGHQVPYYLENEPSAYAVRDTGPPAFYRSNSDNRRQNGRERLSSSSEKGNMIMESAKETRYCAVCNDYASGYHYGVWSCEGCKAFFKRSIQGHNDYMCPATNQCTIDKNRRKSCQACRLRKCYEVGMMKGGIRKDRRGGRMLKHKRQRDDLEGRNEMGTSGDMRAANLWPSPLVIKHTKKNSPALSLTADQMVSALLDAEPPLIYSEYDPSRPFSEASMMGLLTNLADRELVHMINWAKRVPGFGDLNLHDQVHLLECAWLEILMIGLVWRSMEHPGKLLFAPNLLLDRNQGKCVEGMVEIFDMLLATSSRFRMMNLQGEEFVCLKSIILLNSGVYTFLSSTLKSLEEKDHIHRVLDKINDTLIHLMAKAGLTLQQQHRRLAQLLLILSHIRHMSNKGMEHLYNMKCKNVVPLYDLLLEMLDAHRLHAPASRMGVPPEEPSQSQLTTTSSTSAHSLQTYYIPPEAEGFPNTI

[6] = molecular target: T3, rat uterine nuclear estrogen receptor (Rattus norvegicus, UniProt P06211); details: Martucci et al. 1976; cited from earlier work
T3 construct: rat uterine nuclear estrogen receptor; host or cells: rat uterus, nuclear fraction
T3 sequence (P06211 1-600): T2 sequence (P06211 1-600)

## C[C@]12CC[C@@H]3c4ccc(O)cc4CC[C@H]3[C@@H]1[C@@H](O)[C@@H](O)[C@@H]2O [E4, 1,3,5 (10)-estratrien-3,15α,16α,17β-tetrol]
[1]; amount of animals responding at days 1-3, even at low doses (e.g. 0.1 mg/kg/day)
  onset of vaginal cornification, po versus sc: faster in po-treated than in sc-treated animals
[1]; 1.0 mg/kg/day, 1 mg/kg/day
  Number of Rats Exhibiting Estrogenic Response/Number of Rats Treated: all rats
[1]; 3.0 mg/kg/day, 3 mg/kg/day
  Number of Rats Exhibiting Estrogenic Response/Number of Rats Treated: all rats
[2]; [3H]DHT as labeled ligand
  binding to human SHBG: does not bind at all
[2]; [3H]estradiol as labeled ligand
  binding to human SHBG: does not bind at all
[2]; comparison among tested steroids, order ethinylestradiol, 17β-estradiol, testosterone, 5α-dihydrotestosterone
  relative binding affinity for human SHBG: negligible
[3]; oral 0.1 mg/kg/day
  disease onset of EAE versus vehicle: trend of delayed disease onset as compared to vehicle-treated mice, but this was not statistically significant
  mean maximal clinical score versus vehicle: did not show statistically significant differences
  EAE incidence: 70%
  mean cumulative EAE score versus vehicle: did not show statistically significant differences
[3]; oral 0.3 mg/kg/day
  disease onset of EAE versus vehicle: trend of delayed disease onset as compared to vehicle-treated mice, but this was not statistically significant
  mean maximal clinical score versus vehicle: did not show statistically significant differences
  EAE incidence: 80%
  mean cumulative EAE score versus vehicle: did not show statistically significant differences
[3]; oral 1 mg/kg/day
  EAE incidence: 33%
  mean cumulative EAE score: 3.9±1.8
  clinical EAE score in second phase (relapse): little evidence of disease activity
  mean maximal clinical (disability) score: 0.9±0.3
  mean day of onset of EAE: 14.7 days
[3]; oral 3 mg/kg/day
  EAE incidence: 40%
  mean cumulative EAE score: 5.8±2.9
  clinical EAE score in second phase (relapse): little evidence of disease activity
  mean maximal clinical (disability) score: 0.8±0.3
  mean day of onset of EAE: 15.7 days
[3]; oral once daily 0.1-3 mg/kg, 42 days
  side-effects (clinical symptoms other than EAE): did not induce any significant side-effects
Nonpregnant ewes
  potency in uterine vasodilation relative to estriol and 17β-estradiol: 15 to 30 times less potent
[4]
  agonistic potency relative to 17β-estradiol: 2%
[5]
  relative binding affinity, of 17β-estradiol (100%): 0.5%
[6]
  relative binding affinity, of 17β-estradiol (100%): 0.3%
